Measured values reported in patent US8524686B2, “Composition for prevention or treatment of eye diseases” (Benebiosis Co., Ltd., priority 2008, dated 2013).

Experiments:
VEGFR-2 = molecular target: T1, VEGFR-2 (Homo sapiens, UniProt P35968); assay: Western blotting of VEGF-stimulated VEGFR-2 phosphorylation in HREC; format: cell-based; settings: endothelial cells (HREC), concentration-dependent, FIG. 4
T1 construct: host or cells: human retinal endothelial cells (HREC), passages 4 to 6
Method: (§1) Human retinal endothelial cells (HREC) were acquired from Sciencell (USA). The cells were cultured in sterilized endothelial cell medium (ECM, Sciencell, USA), and kept in a humidified 5% CO2 incubator at 37° C. Passages 4 to 6 of the HREC were used for testing.
(§2) HREC were homogenized in a buffer containing 50 mM Tris-HCl (pH 8.0), 150 mM NaCl, 0.02% NaN3, 100 μg/mL PMSF, 1 μg/mL aprotinin and 1% Triton X-100. Protein concentration was measured using a Bio-Rad protein assay (Bio-Rad, USA). Thirty (30) μg of the total cell lysate sample was separated by SDS-PAGE based on size, and subjected to electrophoretic migration toward a nitrocellulose membrane using a Hoefer electrophoresis system (Amersham Biosciences, UK). For detection of target protein, the membrane was reacted with p-AKT, ERK, p-ERK, VEGFR-2 (flk-1, Q-20), VE-cadherin, FAK, paxillin, vincullin (SantaCruz Biotechnology, USA) and p-VEGFR-2 (Cell Signaling Tech., USA) antibodies. Detection was carried out using secondary horseradish peroxidase-bound anti-rabbit IgG antibody, anti-goat IgG antibody and anti-mouse IgG antibody (SantaCruz Biotechnology, USA), and using ECL chemiluminescence system (Amersham Biosciences, UK).
(§3) VEGF-mediated VEGFR-2 activation plays an important role in tumor angiogenesis via the activation of VEGFR-2 downstream signal pathways in endothelial cells (25). […]

[1] = test system: experimental dry eye (EDE) mice; assay: Measurement of tear production with cotton thread in mouse model of dry eye; format: in vivo, C57BL/6 mice; settings: for Tear production (thread's wet length): n = 6, cotton thread 60 seconds
Method: (§4) 6 to 8 weeks old C57BL/6 mice (Central Lab Animal, Seoul, Korea) were used for mouse model for dry eye syndrome. All animals were treated according to the ARVO Statement for the Use of Animals in Ophthalmic and Vision Research. Experimental dry eye (EDE) was induced by subcutaneous injection of 0.5 mg/0.2 mL scopolamine hydrobromide (Sigma-Aldrich, St. Louis, Mo.) in alternating hindquarters administered four times a day (9 AM, […], 3 PM and 6 PM) and by exposure to air and ≦40% ambient humidity for 18 hours per day, as previously reported (23). Four experimental groups were evaluated: untreated group (UT), EDE group (control), EDE+sialyllactose (1 mg/kg) group and EDE+sialyllactose (5 mg/kg) group.
Tear production was measured with cotton thread (Zone-quick; Oasis). The thread was held with jeweler forceps and applied to the ocular surface in the lateral canthus for 60 seconds. Wetting of the thread was measured in millimeters, using the scale on the cotton thread.
Tear production at the ocular surface in the lateral canthus from the UT, EDE and two treatment groups (6 eyes/group/experiment, in four different sets of experiments) was measured with cotton thread.

FAK = assay: Immunofluorescence microscopy of anti-FAK stained focal adhesions in VEGF-stimulated HREC; format: cell-based, human; settings: HREC stimulated with 50 ng/mL VEGF, FIG. 6 C
Method: as §1
(§5) HREC were inoculated onto 12 mm n-sterilized, gelatin-coated coverslip of 6-well tissue culture plate. In the presence or absence of sialyllactose, HREC were immobilized with 3.7% formalin with or without treatment with VEGF. Then, the cells were passed through […] Triton X-100 in PBS and washed three times with PBS. Non-specific sites were blocked with PBS-containing 1% bovine serum albumin, while gently shaking at ambient temperature for 30 minutes. After immersing the cells in a solution of FAK, paxillin, vincullin and VE-cadherin antibodies, the cells were incubated overnight at 4° C. After washing with PBS, the cells were further reacted with Alexa Flour 594-conjugate goat anti-mouse IgG (Molecular Probes, USA) and Alexa Flour 488-conjugate goat anti-rabbit IgG (Molecular Probes, USA) at ambient temperature for 1 hour. After washing with PBS, analysis was carried out by fluorescence microscopy. Primary antibodies previously bound to antigens or secondary antibodies were used as negative control. […]

TNF-α = assay: RT-PCR of TNF-α RNA transcripts in corneal epithelial cells of EDE mice; format: in vivo, murine
Method: as §4
(§6) Corneal and conjunctival epithelial cells acquired from six eyes per each test group. Total RNA was isolated using Trizol reagent (JBI Co., Korea) and kept at −80° C. until use. cDNA was synthesized by reverse transcriptase with an oligo dT-adaptor primer from an RNA PCR kit (Bioneer, Korea) according to the manufacturer's recommended protocol. […] In RT-PCR assay, utilization of the same quantity of mRNA was confirmed by analyzing expression level of mGAPDH. […]
(§7) The level of RNA transcripts encoding MMP-9, IL-1β, TNF-α and the housekeeping gene GAPDH were evaluated by RT-PCR using the total RNA of the corneal epithelial cells obtained from each group (UT, EDE and EDE+sialyllactose). […]

paxillin = assay: Immunofluorescence microscopy of anti-paxillin stained focal adhesions in VEGF-stimulated HREC; format: cell-based, human; settings: HREC stimulated with 50 ng/mL VEGF, FIG. 6 G
Method: as §1, §5

IL-1β = assay: RT-PCR of IL-1β RNA transcripts in corneal epithelial cells of EDE mice; format: in vivo, murine
Method: as §4, §6, §7

murine MMP-9 = assay: SDS-PAGE gelatin zymography of corneal and conjunctival epithelial cells of EDE mice; format: in vivo; settings: FIG. 3
Method: as §4
In order to determine the relative concentration of gelatinases in corneal and conjunctival epithelial cells, SDS-PAGE gelatin zymography was performed by using a previously reported method (24). Tissue was homogenized in a sample buffer containing 50 mM Tris-HCl (pH 8.0), 150 mM NaCl, 0.02% NaN3, […] phenylmethylsulfonyl fluoride (PMSF) and 1% Triton X-100. […]
Gelatinolytic activity (105 kDa gelatinolytic band corresponds to murine MMP-9) was evaluated in corneal and conjunctival epithelial cells acquired from the UT, EDE and two treatment groups.

VE-cadherin = assay: Immunofluorescence microscopy of VEGF-induced intercellular adhesion (VE-cadherin staining) in HREC; format: cell-based, human; settings: VEGF-stimulated HREC, one hour after VEGF stimulation, FIG. 7 C
Method: as §1, §5

MMP-9 = assay: RT-PCR of MMP-9 RNA transcripts in corneal epithelial cells of EDE mice; format: in vivo, murine
Method: as §4, §6, §7

[2] = test system: human retinal endothelial cells (HREC); assay: Tube formation assay on Matrigel, VEGF-stimulated HREC; format: cell-based; settings: 24 hours, concentration-dependent, FIG. 5
Method: as §1
Sialyllactose's inhibition effect against HREC's capillary-like network induced by VEGF was investigated using Matrigel-coated 24-well culture plate. Matrigel (13.9 mg/mL) was melted overnight at 4° C. and mixed with ECM medium at a ratio of 1:1. After adding 70 μL of Matrigel (6.95 mg/mL) diluted with ECM to each well of the 24-well culture plate, polymerization was performed for 1 hour at 37° C. For evaluation of tube formation, HREC were detached from the tissue culture plate, washed, resuspended in ECM medium containing 1% FBS (1×10^4 cells/well), and added to the Matrigel-coated well in the presence or absence of VEGF along with sialyllactose at various concentrations. The plate was incubated in a 5% CO2 incubator for 24 hours at 37° C., and capillary-like tube formed in each well of the plate was photographed using a Nikon optical microscope.
The VEGF-mediated VEGFR-2 activation is closely associated with the angiogenic action of endothelial cells such as proliferation, migration, survival and tube formation (25). […]

AKT = assay: Western blotting of VEGF-induced AKT activation in HREC; format: cell-based, human; settings: FIG. 4
Method: as §1, §2, §3

[3] = corneal epithelial cells, EDE group treated with sialyllactose, FIG. 2

T1 sequence (P35968 20-1356): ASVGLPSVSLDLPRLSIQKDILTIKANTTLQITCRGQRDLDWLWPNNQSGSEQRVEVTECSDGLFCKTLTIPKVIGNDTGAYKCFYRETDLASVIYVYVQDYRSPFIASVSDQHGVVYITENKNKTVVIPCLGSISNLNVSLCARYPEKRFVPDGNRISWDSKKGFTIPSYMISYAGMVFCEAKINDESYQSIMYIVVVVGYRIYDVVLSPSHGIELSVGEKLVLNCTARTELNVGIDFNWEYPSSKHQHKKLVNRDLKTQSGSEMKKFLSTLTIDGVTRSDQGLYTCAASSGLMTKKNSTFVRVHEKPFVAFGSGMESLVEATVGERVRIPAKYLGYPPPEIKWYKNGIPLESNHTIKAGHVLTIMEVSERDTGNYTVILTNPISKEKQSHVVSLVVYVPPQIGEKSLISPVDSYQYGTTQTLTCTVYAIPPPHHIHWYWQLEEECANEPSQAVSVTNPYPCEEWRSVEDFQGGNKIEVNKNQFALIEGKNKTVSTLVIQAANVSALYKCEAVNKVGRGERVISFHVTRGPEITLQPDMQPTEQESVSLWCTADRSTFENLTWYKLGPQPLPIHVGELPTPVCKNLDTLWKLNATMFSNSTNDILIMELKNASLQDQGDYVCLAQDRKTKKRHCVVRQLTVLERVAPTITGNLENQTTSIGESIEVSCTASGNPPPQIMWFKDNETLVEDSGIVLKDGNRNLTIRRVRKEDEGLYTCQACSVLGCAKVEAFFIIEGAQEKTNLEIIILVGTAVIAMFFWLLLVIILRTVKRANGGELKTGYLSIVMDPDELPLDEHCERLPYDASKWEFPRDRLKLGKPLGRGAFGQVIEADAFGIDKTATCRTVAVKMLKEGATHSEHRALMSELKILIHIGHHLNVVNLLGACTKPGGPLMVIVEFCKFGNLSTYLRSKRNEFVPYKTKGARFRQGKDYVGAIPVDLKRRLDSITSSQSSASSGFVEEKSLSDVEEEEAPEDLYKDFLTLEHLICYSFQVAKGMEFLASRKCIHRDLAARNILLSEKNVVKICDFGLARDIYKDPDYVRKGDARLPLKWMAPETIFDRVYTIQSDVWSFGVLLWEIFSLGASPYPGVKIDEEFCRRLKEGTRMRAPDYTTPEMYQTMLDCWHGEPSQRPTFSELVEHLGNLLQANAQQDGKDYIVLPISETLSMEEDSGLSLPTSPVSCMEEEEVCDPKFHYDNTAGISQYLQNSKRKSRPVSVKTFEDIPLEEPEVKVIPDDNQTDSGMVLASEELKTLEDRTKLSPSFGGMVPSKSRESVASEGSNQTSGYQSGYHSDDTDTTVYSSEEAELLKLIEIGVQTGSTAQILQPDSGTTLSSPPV

In the case of `CC(=O)N[C@H]1[C@H]([C@H](O)[C@H](O)CO)O[C@@](O[C@H]2[C@@H](O)[C@@H](CO)O[C@@H](O[C@H]3[C@H](O)[C@@H](O)C(O)O[C@@H]3CO)[C@@H]2O)(C(=O)O)C[C@@H]1O` (stereo partly drawn) [sialyllactose, Neu5Ac α-2,3-D-Gal β-1,4-D-Glc], the “VEGF-stimulated VEGFR-2 phosphorylation” value (VEGFR-2) is reported as “strongly reduced”, the “Tear production versus EDE group” value ([1]; EDE + sialyllactose test groups (1 and 5 mg/kg)) is reported as “statistically significant increased tear production” and the “Tear production (thread's wet length)” value ([1]; EDE mice + sialyllactose 1 mg/kg) is reported as 1.55 ± 0.48 mm. The “Tear production (thread's wet length)” value ([1]; EDE mice + sialyllactose 5 mg/kg) was 1.45 ± 0.34 mm, the “Focal adhesions immunostained with anti-FAK” value (FAK) was “markedly inhibited” and the “Decrease in expression of TNF-α gene, 5 mg/kg compared with 1 mg/kg group” value (TNF-α; EDE + sialyllactose 5 mg/kg) was “larger decrease”. For the same molecule, the “Level of TNF-α transcripts” value (TNF-α; [3]) was “decreased”, the “Recruitment and increase of anti-paxillin immunostaining of focal adhesions” value (paxillin) was “certainly blocked” and the “Decrease in expression of IL-1β gene, 5 mg/kg compared with 1 mg/kg group” value (IL-1β; EDE + sialyllactose 5 mg/kg) was “larger decrease”. For the same molecule, the “Level of IL-1β transcripts” value (IL-1β; [3]) was “decreased”, the “Gelatinolytic activity (105 kDa band, MMP-9)” value (murine MMP-9; EDE + sialyllactose 1 mg/kg) was “decreased gelatinolytic activity” and the “Gelatinolytic activity (105 kDa band, MMP-9)” value (murine MMP-9; EDE + sialyllactose 5 mg/kg) was “decreased gelatinolytic activity”. The “Sharp and continuous intercellular contact areas (VE-cadherin staining)” value (VE-cadherin) was “recovered”, the “Decrease in expression of MMP-9 gene, 5 mg/kg compared with 1 mg/kg group” value (MMP-9; EDE + sialyllactose 5 mg/kg) was “larger decrease” and the “Level of MMP-9 transcripts” value (MMP-9; [3]) was “decreased”. For the same molecule, the “Width and length of the tube” value [2] was “significantly reduced” and the “VEGF-induced AKT activation” value (AKT) was “markedly reduced”.
